Test results as given in paper PMC7873978, “A Novel Lipoate-Protein Ligase, Mhp-LplJ, Is Required for Lipoic Acid Metabolism in Mycoplasma hyopneumoniae” (Frontiers in Microbiology, 2021).

Experiments:
[1] = molecular target: T1, Mhp-LplJ (lipoate-protein ligase, MHP_RS00640) (Mesomycoplasma hyopneumoniae, UniProt E4QSS7); assay: SPR (Biacore 8K), single-site affinity fit; also inhibits PdhD lipoylation in vitro at […]; format: binding
T1 construct: gene lplA; hexa-histidine-tagged Mhp-LplJ (pET22b)
T1 sequence (E4QSS7 1-336): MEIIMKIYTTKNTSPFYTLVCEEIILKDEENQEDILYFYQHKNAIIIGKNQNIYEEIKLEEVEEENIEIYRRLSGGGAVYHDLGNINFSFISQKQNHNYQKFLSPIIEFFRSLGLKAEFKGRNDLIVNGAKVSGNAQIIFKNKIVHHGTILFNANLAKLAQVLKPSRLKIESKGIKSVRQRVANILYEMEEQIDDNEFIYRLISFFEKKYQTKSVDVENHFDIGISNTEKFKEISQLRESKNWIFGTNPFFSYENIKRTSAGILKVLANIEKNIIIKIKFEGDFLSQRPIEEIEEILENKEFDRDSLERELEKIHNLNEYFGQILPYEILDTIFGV

[2] = molecular target: T2, E. coli LplA (lipoate-protein ligase A) (Escherichia coli, UniProt P32099); assay: in vitro lipoate ligation to apo-PdhD, anti-lipoic acid western blot (positive control enzyme); format: biochemical
T2 construct: hexa-histidine-tagged E. coli LplA (pET32a)
T2 sequence (P32099 2-338): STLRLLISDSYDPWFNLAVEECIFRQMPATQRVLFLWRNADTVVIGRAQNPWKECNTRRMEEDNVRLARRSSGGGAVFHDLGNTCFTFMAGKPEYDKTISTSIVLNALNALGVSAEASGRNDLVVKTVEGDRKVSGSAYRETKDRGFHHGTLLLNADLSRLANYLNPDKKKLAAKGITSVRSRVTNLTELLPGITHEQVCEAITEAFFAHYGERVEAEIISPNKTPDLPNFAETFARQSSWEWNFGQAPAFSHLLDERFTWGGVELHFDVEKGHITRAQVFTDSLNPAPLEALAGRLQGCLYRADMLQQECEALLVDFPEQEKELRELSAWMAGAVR

[3] = molecular target: T1, Mhp-LplJ (lipoate-protein ligase, MHP_RS00640); assay: SPR (Biacore 8K, CM5, immobilized Mhp-LplJ), single-site kinetics fit; format: binding
[4] = molecular target: T1, Mhp-LplJ (lipoate-protein ligase, MHP_RS00640); assay: in vitro octanoate ligation to apo-PdhD, gel shift assay; format: biochemical

## O=C(O)CCCCCCCBr [8-BrO, 8-bromooctanoic acid]
[1]
  Kd: 29.8 ± 3.62 µM

## O=C(O)CCCC[C@@H]1CCSS1 [lipoic acid, (R)-5-(1,2-dithiolane-3-yl) pentanoic acid]
[2]
  in vitro lipoate ligation to apo-PdhD, anti-lipoic acid western blot (positive c): PdhD was successfully modified by E. coli LplA in vitro in the presence of lipoic acid
[3]
  Kd: 24.1 ± 1.61 µM

## CCCCCCCC(=O)O [octanoic acid]
[4]
  in vitro octanoate ligation to apo-PdhD, gel shift assay: Mhp-LplJ could able to catalyze the attachment of free octanoic acid to PdhD
